# Reference: patent US20230099822A1, “MR1 LIGANDS AND PHARMACEUTICAL COMPOSITIONS FOR IMMUNOMODULATION” (UNIVERSITÄT BASEL, priority 2020, published 2023)
# Counter-ions that a name gives are not always drawn.
# How the values were obtained:
# MR1T cell clones [1] = experiment: MR1T cell activation assay with drug-treated THP-1 cells; type: cell-based, human; details: for stimulation of TC5A87 MR1T clone (IFN-γ): THP-1 cells incubated 18 h with drug (FIG. 7d, f, g); for T cell response in MR1T cell clones: THP-1 cells treated with drug; for reactivity of DGB129 clone to drug-treated THP-1 cells: drug alone, 25 μM EHNA, 10 μM MPA, 20 μM BBG (FIG. 9H); for activation of MR1T-cell clones TC5A87, DGB129, MCA3C3: THP-1 cells with Doxorubicin 75 nM or Paclitaxel 5 μM and nucleosides (dAdenosine and Guanosine, both 150 μM)
# Experimental: (§1) MR1T cells (5×10^4/well unless otherwise indicated) were co-cultured with the indicated APCs (10^5 cells per well unless otherwise indicated) for 18 h in 120 μL volume in triplicate. In some experiments, anti-MR1 mAbs (clone 26.5, purified and endotoxin-free mouse IgG2a, (Lepore et al., 2014)) or mouse IgG2a isotype control mAbs (LEAF, Biolegend, Cat #401504) (both at 30 μg/mL) were added and incubated for 30 min at 37° C. prior to the addition of T cells.
# (§2) In experiments with mycophenolic acid (10 μM), EHNA (25 μM), S-p-bromobenzylglutathione cyclopentyl diester (BBG, 20 μM) (all from Sigma-Aldrich), THP-1 cells (1×10^6/mL) were treated with the indicated concentrations of drugs in complete medium at 37° C. for 18 h before being washed twice with PBS, counted and used for T-cell activation. In experiments where THP-1 cells (1×10^6/mL) were treated with doxorubicin (75 nM) and paclitaxel (5 μM) (both from Sigma-Aldrich), the cells were incubated at 37° C. for 18 h before being washed twice with PBS, counted, and incubated for 2 h with vehicle or 150 μM dAdo and 150 μM guanosine (Sigma-Aldrich) prior to T-cell addition. In experiments where fixed A375-MR1 cells were used to activate MR1T cells, APCs (4×10^5/mL) were treated with apocynin (APO, 100 μM), L-glutathione reduced (GSH, 4 mM), N-acetyl cysteine (NAC, 4 mM), L-buthionine-sulfoximine (BSO, 400 μM) mercaptosuccinic acid (MSA, 3.3 μM), ML-210 (6 μM) or 1S,3R-RSL3 (RSL3, 1 μM), hydralazine hydrochloride (100 μM) or aminoguanidine hemisulfate salt (5 mM) for 18 h at 37° C. before being washed twice with PBS, fixed with glutaraldehyde, counted and used for MR1T cell stimulation.
# (§3) The following human cytokines were assessed by ELISA using specific mAbs: GM-CSF (purified clone BVD2-23B6 and biotinylated clone BVD2-21C11, Biolegend Cat #502202 and 502304, respectively), IFN-γ (purified clone MD-1 and biotinylated clone 4S.B3, Biolegend Cat #507502 and 502504, respectively), IL-13 (purified clone JES10-5A2 and biotinylated clone SB126d, SouthernBiotech Cat #10125-01 and 15930-08, respectively).
# [2] = biological target: T1, MR1 surface expression on THP-1 MR1 cells (Homo sapiens, UniProt Q95460); experiment: Cell surface MR1 modulation on APCs (flow cytometry, anti-MR1 mAb 26.5); type: cell-based; details: THP-1 MR1 cells, 3 h at 37° C., 3 doses each
# T1 construct: expressed in transfected cells; host or cells: THP-1 (ATCC TIB-202) stably expressing MR1 (THP1-MR1)
# Experimental: […] […] For each condition, net MFI was calculated subtracting isotype MFI from anti-MR1 MFI and fold change of cells treated with synthetic molecules over cells treated with vehicle was calculated.
# MR1T cell clones [3] = experiment: Competition assay for stimulation of MR1T cell clones; type: cell-based, human; details: APCs with compound 2 h (3 doses), then antigen at optimal concentration, cytokine ELISA
# Experimental: As positive control for competition with antigens, Ac-6-FP was used (100 μM). Supernatants were collected after 24 h for cytokine analysis measured by ELISA.
# MR1T cell clones [4] = experiment: MR1T cell activation assay with THP-1 cells incubated with compounds (cytokine ELISA); type: cell-based, human
# Experimental: MR1T cells (5×10^4/well unless otherwise indicated) were co-cultured with the indicated APCs (10^5 cells per well unless otherwise indicated) for 18 h in 120 μL volume in triplicate.
# When nucleobases, nucleosides or nucleotides (all 250 μM) and synthetic compounds M3ADE, OPdA, M1G or OPdC were used to stimulate T cells, the THP-1 cells (10^5/well) were cultured 2 h with the indicated molecules or medium only, prior to T-cell addition. When a single concentration of synthetic antigens was used, 100 μM OPdA, 100 μM OPdC and 13 μM M1G were used for all clones, while 100 μM M3ADE was used for all clones except DGB129, AC1A4, AC1B76 and AVA46 for which 1 μM was used.
# MR1T cell clones [5] = experiment: MR1T cell activation assay with treated and fixed A375-MR1 cells; type: cell-based, human; details: 18 h treatment before fixation; concentrations (FIG. 10D-L)
# Experimental: as §1, §2, §3
# MAIT clone MRC25 = experiment: Control stimulation of MAIT clone MRC25; type: cell-based, human; details: for MAIT cell activation: A375-MR1 cells treated with carbonyl scavengers (FIG. 16E)
# Experimental: In some experiments, MAIT cells were stimulated by APCs pulsed 3 h with 5-OP-RU as previously described or with 30 μM 6,7-dimethyl-8-ribityllumazine (Cayman Chemical Cat #23370).
# THP-1 cells = experiment: ROS production measurement (CM-H2DCFDA); type: cell-based, human; details: 75 nM Doxorubicin or 5 μM Paclitaxel, 18 h (FIG. 17A)
# Experimental: CM-H2DCFDA (Thermo Fisher Scientific) was used to assess ROS production in cell upon cell treatment with Doxorubicin and Paclitaxel. THP-1 cells ([…]) were labelled with 10 μM CM-H2DCFDA for 30 min at 37° C. in the dark, then washed with PBS and resuspended in complete medium. 10^5 cells were seeded per well and treated with 75 nM Doxorubicin, 5 μM Paclitaxel or vehicle for 18 h at 37° C. Phorbol 12-myristate 13-acetate (PMA, 50 ng/mL) was used as positive control.
# T1 sequence (Q95460 23-341): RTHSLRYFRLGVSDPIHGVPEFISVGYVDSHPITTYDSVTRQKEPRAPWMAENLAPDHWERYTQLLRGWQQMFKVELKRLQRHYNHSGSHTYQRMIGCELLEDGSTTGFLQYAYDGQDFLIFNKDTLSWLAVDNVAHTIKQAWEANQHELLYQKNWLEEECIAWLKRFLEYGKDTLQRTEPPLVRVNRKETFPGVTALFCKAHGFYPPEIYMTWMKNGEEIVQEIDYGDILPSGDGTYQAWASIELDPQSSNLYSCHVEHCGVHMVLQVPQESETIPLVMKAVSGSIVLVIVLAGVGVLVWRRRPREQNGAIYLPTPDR
# T1 sequence (P61769 21-119 partner): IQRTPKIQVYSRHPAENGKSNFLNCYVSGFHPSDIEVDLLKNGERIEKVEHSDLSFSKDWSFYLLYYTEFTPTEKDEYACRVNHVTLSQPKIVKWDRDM
smiles,measurement,setting,value
"CCCCCC[C@@H]([C@@H](C)O)n1cnc2c(N)ncnc21 (racemic) [EHNA, erythro-9-(2-hydroxy-3-nonyl) adenine]",stimulation of TC5A87 MR1T clone (IFN-γ),MR1T cell clones [1],induces the stimulation
same,T cell response in MR1T cell clones,MR1T cell clones [1],induced a strong stimulation
same,reactivity of DGB129 clone to drug-treated THP-1 cells,MR1T cell clones [1],reacted
"NC(CCC(=O)NC(CSCc1ccc(Br)cc1)C(=O)NCC(=O)OC1CCCC1)C(=O)OC1CCCC1 (stereo not drawn) [BBG, S-p-bromobenzylglutathione cyclopentyl diester]",IFN-γ release of both MR1T cell clones to THP-1 cells,"MR1T cell clones [1]; BBG in combination with each of MPA and EHNA, clones TC5A87 and DGB129 (FIG. 9G, H)",significantly enhanced
same,reactivity of DGB129 clone to drug-treated THP-1 cells,MR1T cell clones [1],reacted
"C[C@@H](O)[C@H](NC(=O)Nc1ncnc2c1ncn2[C@@H]1O[C@H](CO)[C@@H](O)[C@H]1O)C(=O)O [Cmpd 5, N6-threonylcarbamoyladenosine]",MRI upregulation,[2],YES
same,Competition,MR1T cell clones [3],YES
same,Reactive T cells isolated,MR1T cell clones [4],YES
"CC(C)=CCNc1ncnc2c1ncn2[C@@H]1O[C@H](CO)C(O)C1O (stereo partly drawn) [Cmpd 6, N6-isopent-2-enyladenosine]",MRI upregulation,[2],YES
same,Competition,MR1T cell clones [3],YES
same,Reactive T cells isolated,MR1T cell clones [4],YES
"C[C@@H](O)[C@H](NC(=O)N(C)c1ncnc2c1ncn2[C@@H]1O[C@H](CO)[C@@H](O)[C@H]1O)C(=O)O [Cmpd 10, N6-methyl-N6-threonylcarbamoyladenosine]",MRI upregulation,[2],YES
same,Competition,MR1T cell clones [3],YES
same,Reactive T cells isolated,MR1T cell clones [4],YES
"CN(C)c1nc2c(ncn2[C@@H]2O[C@H](CO)[C@@H](O)[C@H]2O)c(=O)[nH]1 [Cmpd 19, N2,N2-dimethylguanosine]",MRI upregulation,[2],YES
same,Competition,MR1T cell clones [3],YES
same,Reactive T cells isolated,MR1T cell clones [4],YES
"Cn1c(=O)ccn([C@@H]2O[C@H](CO)[C@@H](O)[C@H]2O)c1=O [Cmpd 30, 3-methyluridine]",MRI upregulation,[2],YES
same,Competition,MR1T cell clones [3],YES
same,Reactive T cells isolated,MR1T cell clones [4],YES
"Cc1ncnc2nc[nH]c12 [Cmpd 43, 6-Methylpurine]",MRI downmodulation,[2],YES
same,Competition,MR1T cell clones [3],YES
"CN(C)c1ncnc2nc[nH]c12 [Cmpd 44, 6-(Dimethylamino)purine]",MRI upregulation,[2],YES
same,Competition,MR1T cell clones [3],YES
"CC(C)=CCNc1ncnc2[nH]cnc12 [Cmpd 45, N6-(Δ2-Isopent-2-enyl) adenine]",MRI downmodulation,[2],YES
same,Competition,MR1T cell clones [3],YES
O=c1c(-c2ccc(O)cc2)coc2cc(O[C@@H]3O[C@H](CO)[C@@H](O)[C@H](O)[C@H]3O)ccc12 [Daidzin],response of MCA2B9 MR1T clone (IFN-γ),"MR1T cell clones [1]; THP-1 cells incubated 18 h with drug (FIG. 7a, b)",increase the response
same,T cell response in MR1T cell clones,MR1T cell clones [1],induced a strong T cell response
"O=c1oc2c(O)c(O)cc3c(=O)oc4c(O)c(O)cc1c4c23 [Ellagic acid, ellagic acid]",stimulation of QY1A16 MR1T clone (IFN-γ),MR1T cell clones [1]; THP-1 cells incubated 18 h with drug (FIG. 7e),induces the stimulation
same,T cell response in MR1T cell clones,MR1T cell clones [1],induced a strong T cell response
"N[C@@H](CCC(=O)N[C@@H](CS)C(=O)NCC(=O)O)C(=O)O [GSH, L-glutathione reduced]","MR1T-cell stimulation (IFN-γ) by treated, fixed A375-MR1 cells",MR1T cell clones [5],significantly less IFN-γ production
Cc1onc(C(=O)N2CCN(C(c3ccc(Cl)cc3)c3ccc(Cl)cc3)CC2)c1[N+](=O)[O-] [ML-210],"MR1T-cell stimulation (IFN-γ) by treated, fixed A375-MR1 cells",MR1T cell clones [5],significantly increased MR1T-cell stimulatory activity
COc1c(C)c2c(c(O)c1C/C=C(\C)CCC(=O)O)C(=O)OC2 [Mycophenolic acid],stimulation of TC5A87 MR1T clone (IFN-γ),MR1T cell clones [1],induces the stimulation
same,T cell response in MR1T cell clones,MR1T cell clones [1],induced a strong stimulation
same,reactivity of DGB129 clone to drug-treated THP-1 cells,MR1T cell clones [1],reacted
CC(=O)N[C@@H](CS)C(=O)O [N-acetylcysteine],"MR1T-cell stimulation (IFN-γ) by treated, fixed A375-MR1 cells",MR1T cell clones [5],significantly less IFN-γ production
"CC1(C)CC[C@]2(C(=O)O)CC[C@]3(C)C(=CC[C@@H]4[C@@]5(C)CC[C@H](O)C(C)(C)[C@@H]5CC[C@]43C)[C@@H]2C1 [Oleanoic acid, oleanoic acid]",stimulation of TC5A87 MR1T clone (IFN-γ),MR1T cell clones [1],induces the stimulation
same,T cell response in MR1T cell clones,MR1T cell clones [1],induced a strong T cell response
"COC(=O)c1ccc([C@H]2c3[nH]c4ccccc4c3C[C@H](C(=O)OC)N2C(=O)CCl)cc1 [RSL3, 1S,3R-RSL3]","MR1T-cell stimulation (IFN-γ) by treated, fixed A375-MR1 cells",MR1T cell clones [5],significantly increased MR1T-cell stimulatory activity
"N=C(N)NN [aminoguanidine, aminoguanidine hemisulfate salt]","MR1T-cell stimulation (IFN-γ) by treated, fixed A375-MR1 cells",MR1T cell clones [5],significant inhibition of IFN-γ production
same,MAIT cell activation,MAIT clone MRC25,no effect on MAIT cell activation
COc1cc(C(C)=O)ccc1O [apocynin],"MR1T-cell stimulation (IFN-γ) by treated, fixed A375-MR1 cells",MR1T cell clones [5],effective with one T-cell clone
CCCCS(=N)(=O)CCC(N)C(=O)O (stereo not drawn) [buthionine sulfoximine],"MR1T-cell stimulation (IFN-γ) by treated, fixed A375-MR1 cells",MR1T cell clones [5],significant increase
"COc1cccc2c1C(=O)c1c(O)c3c(c(O)c1C2=O)C[C@@](O)(C(=O)CO)C[C@@H]3O[C@H]1C[C@H](N)[C@H](O)[C@H](C)O1 [doxorubicin, Doxorubicin]","activation of MR1T-cell clones TC5A87, DGB129, MCA3C3",MR1T cell clones [1],promoted activation of all three MR1T-cell clones
same,ROS accumulation,THP-1 cells,significantly increased ROS accumulation
"NNc1nncc2ccccc12 [hydralazine, hydralazine hydrochloride]","MR1T-cell stimulation (IFN-γ) by treated, fixed A375-MR1 cells",MR1T cell clones [5],significant inhibition of IFN-γ production
same,MAIT cell activation,MAIT clone MRC25,no effect on MAIT cell activation
O=C(O)CC(S)C(=O)O (stereo not drawn) [mercaptosuccinic acid],"MR1T-cell stimulation (IFN-γ) by treated, fixed A375-MR1 cells",MR1T cell clones [5],significantly increased MR1T-cell stimulatory activity
"CC(=O)O[C@H]1C(=O)[C@@]2(C)[C@H]([C@H](OC(=O)c3ccccc3)[C@]3(O)C[C@H](OC(=O)[C@H](O)[C@@H](NC(=O)c4ccccc4)c4ccccc4)C(C)=C1C3(C)C)[C@]1(OC(C)=O)CO[C@@H]1C[C@@H]2O [paclitaxel, Paclitaxel]","activation of MR1T-cell clones TC5A87, DGB129, MCA3C3",MR1T cell clones [1],promoted activation of all three MR1T-cell clones
same,MAIT-cell response,"MAIT clone MRC25; drug-treated APCs, paclitaxel in presence of nucleosides (FIG. 16C-D)",little but significant stimulation
same,ROS accumulation,THP-1 cells,significantly increased ROS accumulation
